Patent US20040191289A1, “Compositions for controlling plant pathogenic bacterium and method of controlling plant pathogenic bacterium” (priority 2001, published 2004)

Columns and labels:
[1] = test system: Pythium Damping-off Disease of Rice Seedlings; test: Test for prophylactic efficacy against Pythium damping-off disease of rice seedlings (2) (Test Example 3); type: in vivo; conditions: soil irrigation, 35 days after sowing
Description: (§1) AS resin cases (each 15×11 cm) were filled with pathogen-inoculated soil as bed soil, and seeded with rice seeds. Next, the AS resin case was irrigated using a pipette with a test solution (50 ml) prepared by adjusting each active ingredient compound to a predetermined concentration, and then covered with soil. After kept for 3 days in a thermostatic room set at 32° C., the plants were grown in a greenhouse. Ten days after sowing, the plants were exposed to a cold temperature during night for 3 days. Thirty five days after sowing, the disease incidence area was examined. In these cases, each theoretically expected value obtained from the aforementioned formula derived from the Colby's formula is shown in parentheses in Table 4.

[2] = test system: Pythium debaryanum (MAFF No. 305462); test: Antimicrobial test, mycelial growth on PSA medium (Test Example 4); type: cell-based; conditions: 20° C., 1 day incubation
Description: (§2) Each sample fungal flora pre-cultured in PSA medium was cut from the medium plate with a cork borer, and placed on a center of PSA medium containing each test compound at a predetermined concentration, dispensed in a Petri dish with an inner diameter of 8 cm. Immediately thereafter, the dish was allowed to stand in a thermostatic room set at 20° C. […] In cases where an observed value is lower than the theoretically expected one derived from the Colby's formula, the phytopathogenic microorganism-disinfecting composition of the present invention is synergistically effective in combating and/or eliminating phytopathogenic microorganisms.

[3] = test system: Aphanomyces cochlioides (MAFF No. 305548); test: as above; type: cell-based; conditions: 20° C., 3 day incubation
Description: as §2

[4] = test system: Pythium Damping-off Disease of Rice Seedlings; test: Test for prophylactic efficacy against Pythium damping-off disease of rice seedlings (1) (Test Example 2); type: in vivo; conditions: soil irrigation, 29 days after sowing
Description: as §1, with “Polyvinyl chloride cups” for “AS resin cases”, “10 cm square)” for “15×11 cm)”, “polyvinyl chloride cup” for “AS resin case”, “(27.8” for “(50”, “night. Twenty nine” for “night for 3 days. Thirty five”, “3.” for “4.”

Pythium spinosum = test: Antimicrobial test, mycelial growth on PSA medium (Test Example 1); type: cell-based; conditions: 20° C., 2 day incubation
Description: (§3) Each sample fungal flora pre-cultured in PSA medium was cut from the medium plate with a cork borer, and placed on a center of PSA medium containing each test compound at a predetermined concentration, dispensed in a Petri dish with an inner diameter of 8 cm. Immediately thereafter, the dish was allowed to stand in a thermostatic room set at 20° C. The diameters of the flora zones were measured after 2 day incubation. A mycelial growth rate is calculated according to the following equation. […] A theoretically expected value can be calculated according to the following formula derived from the so-called Colby's formula. In cases where an observed value is lower than the theoretically expected one obtained from the formula derived from the Colby's formula, the phytopathogenic microorganism-disinfecting composition of the present invention is synergistically effective in combating and/or eliminating phytopathogenic microorganisms.

Pythium aphanidermatum = test: as above; type: cell-based; conditions: 20° C., 2 day incubation
Description: as §3

## Cc1ccc(-c2c(Cl)nc(C#N)n2S(=O)(=O)N(C)C)cc1 [Compound No. 1, 4-chloro-2-cyano-1-dimethylsulfamoyl-5-(4-methyl-phenyl)imidazole]
[1]; Compound No. 1 139 g/ha alone
  Damping-off Incidence Area Rate (%): 50%
[2]; Compound No. 1 25 ppm alone
  Mycelial Growth Rate (%): 59%
[2]; Compound No. 1 50 ppm alone
  Mycelial Growth Rate (%): 49%
[2]; Compound No. 1 100 ppm alone
  Mycelial Growth Rate (%): 44%
[3]; Compound No. 1 25 ppm alone
  Mycelial Growth Rate (%): 52%
[3]; Compound No. 1 50 ppm alone
  Mycelial Growth Rate (%): 29%
[3]; Compound No. 1 100 ppm alone
  Mycelial Growth Rate (%): 11%
[4]; Compound No. 1 278 g/ha alone
  Damping-off Incidence Area Rate (%): 67%
Pythium spinosum; Compound No. 1 25 ppm alone
  Mycelial Growth Rate (%): 14.4%
Pythium spinosum; Compound No. 1 50 ppm alone
  Mycelial Growth Rate (%): 9.3%
Pythium spinosum; Compound No. 1 100 ppm alone
  Mycelial Growth Rate (%): 2.1%
Pythium aphanidermatum; Compound No. 1 25 ppm alone
  Mycelial Growth Rate (%): 21.1%
Pythium aphanidermatum; Compound No. 1 50 ppm alone
  Mycelial Growth Rate (%): 6.3%
Pythium aphanidermatum; Compound No. 1 100 ppm alone
  Mycelial Growth Rate (%): 9.4%

## Cc1cc(O)no1 [Hymexazol, 5-methylisoxazol-3-ol]
[1]; Hymexazol 1,040 g/ha alone (Compound No. 1 0 ppm)
  Damping-off Incidence Area Rate (%): 90%
[2]; Hymexazol 25 ppm alone
  Mycelial Growth Rate (%): 89%
[2]; Hymexazol 50 ppm alone
  Mycelial Growth Rate (%): 84%
[2]; Hymexazol 100 ppm alone
  Mycelial Growth Rate (%): 67%
[3]; Hymexazol 25 ppm alone
  Mycelial Growth Rate (%): 53%
[3]; Hymexazol 50 ppm alone
  Mycelial Growth Rate (%): 43%
[3]; Hymexazol 100 ppm alone
  Mycelial Growth Rate (%): 43%
[4]; Hymexazol 1,040 g/ha alone
  Damping-off Incidence Area Rate (%): 50%
Pythium spinosum; Hymexazol 25 ppm alone
  Mycelial Growth Rate (%): 27.8%
Pythium spinosum; Hymexazol 50 ppm alone
  Mycelial Growth Rate (%): 21.6%
Pythium spinosum; Hymexazol 100 ppm alone
  Mycelial Growth Rate (%): 23.7%
Pythium aphanidermatum; Hymexazol 25 ppm alone
  Mycelial Growth Rate (%): 22.7%
Pythium aphanidermatum; Hymexazol 50 ppm alone
  Mycelial Growth Rate (%): 16.4%
Pythium aphanidermatum; Hymexazol 100 ppm alone
  Mycelial Growth Rate (%): 6.3%
